Experimental data published in patent US9381208B2, “Structure and use of 5′ phosphate oligonucleotides” (Rheinische Friedrich-Wilhelms-Universität, priority 2006, dated 2016).
Oligonucleotides are written 5' to 3', each unit as a sugar letter and its base; * is a phosphorothioate linkage, no mark a phosphodiester; rarer units and linkages stand in square brackets, end groups in braces. Plain capitals give the bases only. {ppp} = triphosphate group; r = 2'-OH (RNA)

How the values were obtained:
human primary monocytes = experiment: IFN-α production in human primary monocytes transfected with RNA (ELISA); format: cell-based; details: for IFN-α production in monocytes: 200 ng RNA transfected, 24 hours, ELISA; for IFN-α-inducing activity conferred by the 5′ 4-nucleotide sequence: adenosine-initiated in vitro transcribed RNA oligonucleotides, FIG. 13; for IFN-α induction (*100%) mean: monocytes from three donors, 36 hours after transfection, normalized to the mean induction level of all oligonucleotides (=100%)
PDC = experiment: IFN-α production in human PDC (ELISA); format: cell-based; details: 24 hours
Method: Human PBMC were prepared from whole blood donated by young healthy donors by Ficoll-Hypaque density gradient centrifugation (Biochrom, Berlin, Germany). PDC were isolated by MACS using the blood dendritic cell Ag (BCDA)-4 dendritic cell isolation kit from Miltenyi Biotec (Bergisch-Gladbach, Germany). Briefly, PDC were labelled with anti-BDCA-4 Ab coupled to colloidal paramagnetic microbeads and passed through a magnetic separation column twice (LS column, then MS column; Miltenyi Biotec). The purity of isolated PDC (lineage-negative, MHC-II-positive and CD123-positive cells) was above 95%. Before isolation of monocytes, PDC were depleted by MACS (LD column; Miltenyi Biotec) and then monocytes were isolated using the monocyte isolation kit II (Miltenyi Biotec). […] PDC cultures were additionally supplemented with 10 ng/ml IL-3 (R&D Systems). […] Vero (African green monkey kidney) and HEK 293T (human embryonic kidney) cells were maintained in Dulbecco's modified Eagle's medium supplemented with antibiotics and 5% or 10% foetal calf serum, respectively. BSR cells were propagated in Glasgow minimal essential medium supplemented with 10% newborn calf serum, phosphate broth, amino acids and antibiotics.
Human IFN-α was assessed in cell culture supernatants using the IFN-α module set (Bender MedSystems, Graz, Austria). The murine IP-10 ELISA was from Biosource (Solingen, Germany), the murine IFN-[…] ELISA was from PBL Biomedical Laboratories (Piscataway, USA). All ELISA procedures were performed, according to manufacturers' recommendations.

PBMC = experiment: IFN-α induction in the presence of chloroquine; format: cell-based, human
RIG-I [1] = target: T1, RIG-I (Homo sapiens, UniProt O95786); experiment: Ligand binding studies: pull-down of RIG-I by biotinylated RNA; design: HEK 293 cells were transiently transfected with full length RIG-I, RIG-I CARD2 or RIG-I ΔHELIc; expressed in transfected cells; host or cells: HEK 293 (whole cell lysate); details: whole cell lysate of HEK 293 cells overexpressing full length RIG-I
T1 sequence (O95786 1-925): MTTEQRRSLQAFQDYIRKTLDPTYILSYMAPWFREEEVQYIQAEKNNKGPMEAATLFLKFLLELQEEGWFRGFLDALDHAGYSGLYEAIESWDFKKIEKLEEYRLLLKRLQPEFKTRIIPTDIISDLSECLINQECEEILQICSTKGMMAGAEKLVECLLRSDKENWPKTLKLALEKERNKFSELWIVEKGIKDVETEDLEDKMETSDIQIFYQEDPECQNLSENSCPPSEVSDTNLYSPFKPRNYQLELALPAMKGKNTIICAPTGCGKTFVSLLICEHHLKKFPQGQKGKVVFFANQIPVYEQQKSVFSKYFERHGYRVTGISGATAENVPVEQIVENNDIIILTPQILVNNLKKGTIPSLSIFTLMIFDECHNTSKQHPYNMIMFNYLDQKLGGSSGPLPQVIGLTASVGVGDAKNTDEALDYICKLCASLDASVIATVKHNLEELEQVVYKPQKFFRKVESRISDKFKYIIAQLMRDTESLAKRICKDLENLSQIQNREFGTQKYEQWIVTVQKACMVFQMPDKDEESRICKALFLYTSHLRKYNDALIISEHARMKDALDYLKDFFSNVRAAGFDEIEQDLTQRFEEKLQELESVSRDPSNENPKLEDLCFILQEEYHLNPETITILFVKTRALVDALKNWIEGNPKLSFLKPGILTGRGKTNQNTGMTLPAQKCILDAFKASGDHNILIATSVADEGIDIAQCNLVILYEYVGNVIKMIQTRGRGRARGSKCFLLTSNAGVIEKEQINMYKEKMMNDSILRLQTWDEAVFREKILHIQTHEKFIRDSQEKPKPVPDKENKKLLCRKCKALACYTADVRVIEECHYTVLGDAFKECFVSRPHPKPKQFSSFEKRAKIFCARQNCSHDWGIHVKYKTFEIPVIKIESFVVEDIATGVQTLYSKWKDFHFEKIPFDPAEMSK
Method: Cell lysates were prepared according to Meister et al. (G. Meister et al., Mol Cell 15, 185 (Jul. 23, 2004)) with minor modifications. HEK 293 cells were transfected using high molecular weight (25 kDa) polyethylenimine (PEI; Sigma, 40.872-7). At a confluency of 80-90%, cells were transfected with a PEI:DNA ratio of 1.5:1. 24-36 hours after transfection cells were harvested and the cell pellet was resuspended in five pellet volumes of 10 mM KCl, 1.5 mM MgCl2, 0.5 mM dithiothreitol, 10 mM HEPES-NaOH (pH 7.9), 0.5 mM PMSF and incubated for ten minutes on ice. Subsequently cells were washed and the cell pellet was resuspended in two pellet volumes of the buffer described above and homogenized by douncing. The cell nuclei were removed from the cell lysate by centrifugation at 2.000 g for ten minutes. The supernatant was transferred into microcentrifuge tubes and cleared further by centrifugation at 2.000 g for ten minutes and further centrifugation for 30 minutes at 20.000 g to obtain the cytoplasmic extract. The concentration of KCl of the extract was subsequently raised to 100 mM by addition of 2 M KCl and glycerol was added to a percentage of 10%. For purification of FLAG-tagged RIG-IC complexes, cytoplasmic extracts were incubated in FLAG M2 agarose beads (Sigma). FLAG M2 agarose beads were washed once with 0.1 M glycine (pH 3.5) and equilibrated by washing with 1 M Tris-HCl (pH 8.0). […]

RIG-I [2] = target: T1, RIG-I; experiment: pIFN-beta-Luc reporter assay in HEK 293 cells transfected with RIG-I; format: cell-based; design: Only HEK 293 cells expressing full length RIG-I responded to 5′triphosphate RNA; FLAG; expressed in transfected cells; host or cells: HEK 293; details: HEK 293 cells expressing full length RIG-I, 200 ng, 24 hours

`CCOCc1nc2c(N)nc3ccccc3c2n1CC(C)(C)O` [R848, reference compound] was tested, and the “IFN-α production in monocytes” value (human primary monocytes) was “failed to produce IFN-α” and the “IFN-α production in PDC” value (PDC) was “induce IFN-α in PDC”.

With “5′-ggGGGACGATCGTCgggggG-3′ [CpG-A ODN 2216, reference compound]” the “IFN-α production in monocytes” value (human primary monocytes) was “failed to produce IFN-α”, the “IFN-α production with chloroquine” value (human primary monocytes; isolated monocytes) was “inactive” and the “effect of increasing concentrations of chloroquine on IFN-α induction” value (PBMC) was “inhibited IFN-α induction”. For the same compound, the “IFN-α production in PDC” value (PDC) was “induce IFN-α in PDC”.

In the case of “5′-pppGGGAGACAGGCACCACACACACACACACUUU-3′ [tri-G-AC-U]”, the “pull-down of full length RIG-I” value (RIG-I [1]) is reported as “did not immunoprecipitate RIG-I”.

In the case of “auuaggggac acacacacac acacacacac (AUUAGGGGACACACACACACACACACACAC; RNA, 5' {ppp}, backbone not given here) [SEQ ID No. 171]”, the “IFN-α-inducing activity conferred by the 5′ 4-nucleotide sequence” value (“IFN-α-inducing activity conferred” below) (human primary monocytes) is reported as “highest IFN-α-inducing activity” and the “IFN-α induction (*100%) mean” value (human primary monocytes) is reported as 1.36 *100%.

For “5′-pppGGGGCUGACCCUGAAGUUCAUCUU-3′ [tri-GFPs]”, the “IFN-α production in monocytes” value (human primary monocytes) was “comparable levels of IFN-α” and the “IFN-β promoter reporter expression” value (RIG-I [2]) was “strongly activated reporter expression”.

With “auacggggac acacacacac acacacacac (AUACGGGGACACACACACACACACACACAC; RNA, 5' {ppp}, backbone not given here) [SEQ ID No. 139]” the “IFN-α induction (*100%) mean” value (human primary monocytes) was 0.99 *100%.

For “aacuggggac acacacacac acacacacac (AACUGGGGACACACACACACACACACACAC; RNA, 5' {ppp}, backbone not given here) [SEQ ID No. 163]”, the “IFN-α-inducing activity conferred” value (human primary monocytes) was “highest IFN-α-inducing activity” and the “IFN-α induction (*100%) mean” value (human primary monocytes) was 1.29 *100%.

With “aaagggggac acacacacac acacacacac (AAAGGGGGACACACACACACACACACACAC; RNA, 5' {ppp}, backbone not given here) [SEQ ID No. 173]” the “IFN-α-inducing activity conferred” value (human primary monocytes) was “highest IFN-α-inducing activity” and the “IFN-α induction (*100%) mean” value (human primary monocytes) was 1.40 *100%.

“5′-pppGGGGAUGAACUUCAGGGUCAGCUU-3′ ({ppp}-rGrGrGrGrArUrGrArArCrUrUrCrArGrGrGrUrCrArGrCrUrU) [tri-GFPa]” was tested, and the “IFN-α production in monocytes” value (human primary monocytes) was “comparable levels of IFN-α” and the “IFN-β promoter reporter expression” value (RIG-I [2]) was “strongly activated reporter expression”.

“5′-OHAGCUUAACCUGUCCUUCAA-3′ [synthetic isRNA9.2s, reference compound]” was tested, and the “IFN-β promoter reporter expression” value (RIG-I [2]) was “did not respond” and the “IFN-α production in PDC” value (PDC) was “produced IFN-α”.

With “agagggggac acacacacac acacacacac (AGAGGGGGACACACACACACACACACACAC; RNA, 5' {ppp}, backbone not given here) [SEQ ID No. 114]” the “IFN-α induction (*100%) mean” value (human primary monocytes) was 0.50 *100%.

“agggggggac acacacacac acacacacac (AGGGGGGGACACACACACACACACACACAC; RNA, 5' {ppp}, backbone not given here) [SEQ ID No. 111]” was tested, and the “IFN-α induction (*100%) mean” value (human primary monocytes) was 0.22 *100%.

In the case of “5′-PPPGGGAGACAGGCCCCCCCCCCCCCCCCCCCCC-3′ [tri-poly C]”, the “IFN-α production in monocytes” value (human primary monocytes) is reported as “equally potent”.

“acccggggac acacacacac acacacacac (DNA ACCCGGGGACACACACACACACACACACAC; chemistry not fully specified) [SEQ ID No. 130]” was tested, and the “IFN-α induction (*100%) mean” value (human primary monocytes) was 0.89 *100%.

With “agauggggac acacacacac acacacacac (AGAUGGGGACACACACACACACACACACAC; RNA, 5' {ppp}, backbone not given here) [SEQ ID No. 113]” the “IFN-α induction (*100%) mean” value (human primary monocytes) was 0.48 *100%.

For “augcggggac acacacacac acacacacac (AUGCGGGGACACACACACACACACACACAC; RNA, 5' {ppp}, backbone not given here) [SEQ ID No. 159]”, the “IFN-α-inducing activity conferred” value (human primary monocytes) was “highest IFN-α-inducing activity” and the “IFN-α induction (*100%) mean” value (human primary monocytes) was 1.23 *100%.

With “aacaggggac acacacacac acacacacac (AACAGGGGACACACACACACACACACACAC; RNA, 5' {ppp}, backbone not given here) [SEQ ID No. 166]” the “IFN-α-inducing activity conferred” value (human primary monocytes) was “highest IFN-α-inducing activity” and the “IFN-α induction (*100%) mean” value (human primary monocytes) was 1.30 *100%.
